Results on one compound are retold here after US20240390379A1, “EZH2 Inhibition in Pancreatic Cancer” (University of Massachusetts, priority 2021, published 2024).

For this experiment, the system named is KPC1 PDAC cells. The experiment can be described thus: qRT-PCR of senescence and SASP gene expression in KPC1 PDAC cells with EZH2 methyltransferase inhibitors. It counts as cell-based, mouse. As to conditions: GSK126 1 μM or tazemetostat 5 μM with trametinib 25 nM and palbociclib 500 nM, 8 days. As for the experimental part:
P values in b-c were calculated using two-tailed, unpaired Student's t-test.
Trametinib (S2673), palbociclib (S1116), and GSK126 (S7061) were purchased from Selleck chemicals for in vitro studies. Drugs for in vitro studies were dissolved in DMSO (vehicle) to yield 10 mM stock solutions and stored at −80° C. For in vitro studies, growth media with or without drugs was changed every 2-3 days.
Total RNA was isolated using the RNeasy Mini Kit (Qiagen), and complementary DNA (cDNA) was obtained using the TaqMan reverse transcription reagents (Applied Biosystems).
Flow cytometry was performed on a BD LSR II, and data were analyzed using FlowJo (TreeStar).
On the technique in general: Real-time PCR tracks product formation cycle by cycle.

With `CC[C@H](C)n1cc(C)c2c(C(=O)NCc3c(C)cc(C)[nH]c3=O)cc(-c3ccc(N4CCNCC4)nc3)cc21` [GSK126], the “Pro-inflammatory SASP factors and immunomodulatory cell surface proteins” value was “induced pro-inflammatory SASP factors and immunomodulatory cell surface proteins”; the “Senescence-associated cell cycle arrest” value is “without impacting senescence-associated cell cycle arrest”.
